In experiment [1] the target is T1, Prostaglandin G/H synthase 2 (Homo sapiens, UniProt P35354).
T1 sequence (P35354 whole entry): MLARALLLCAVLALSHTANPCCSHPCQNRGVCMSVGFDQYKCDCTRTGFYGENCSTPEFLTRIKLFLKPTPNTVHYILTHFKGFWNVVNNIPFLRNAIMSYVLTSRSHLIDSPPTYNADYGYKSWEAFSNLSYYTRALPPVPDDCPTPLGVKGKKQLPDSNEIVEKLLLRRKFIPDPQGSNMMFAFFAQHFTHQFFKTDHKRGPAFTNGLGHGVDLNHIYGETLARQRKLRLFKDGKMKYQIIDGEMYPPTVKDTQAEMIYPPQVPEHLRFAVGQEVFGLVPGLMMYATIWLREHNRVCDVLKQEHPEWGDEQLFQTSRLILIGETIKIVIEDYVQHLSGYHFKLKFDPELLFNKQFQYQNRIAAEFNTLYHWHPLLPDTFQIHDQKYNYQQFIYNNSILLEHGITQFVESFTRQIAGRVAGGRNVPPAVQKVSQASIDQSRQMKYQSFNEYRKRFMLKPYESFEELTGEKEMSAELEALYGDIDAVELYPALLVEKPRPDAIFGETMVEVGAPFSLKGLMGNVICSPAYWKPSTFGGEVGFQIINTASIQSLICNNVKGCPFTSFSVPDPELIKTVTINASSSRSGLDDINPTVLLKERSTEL
The experiment is described as follows: Inhibition of human recombinant COX2 expressed in insect Sf21 cells by EIA assay.

Experiment [2] deals with T2, Polyunsaturated fatty acid 5-lipoxygenase (Homo sapiens, UniProt P09917).
T2 sequence (P09917 whole entry): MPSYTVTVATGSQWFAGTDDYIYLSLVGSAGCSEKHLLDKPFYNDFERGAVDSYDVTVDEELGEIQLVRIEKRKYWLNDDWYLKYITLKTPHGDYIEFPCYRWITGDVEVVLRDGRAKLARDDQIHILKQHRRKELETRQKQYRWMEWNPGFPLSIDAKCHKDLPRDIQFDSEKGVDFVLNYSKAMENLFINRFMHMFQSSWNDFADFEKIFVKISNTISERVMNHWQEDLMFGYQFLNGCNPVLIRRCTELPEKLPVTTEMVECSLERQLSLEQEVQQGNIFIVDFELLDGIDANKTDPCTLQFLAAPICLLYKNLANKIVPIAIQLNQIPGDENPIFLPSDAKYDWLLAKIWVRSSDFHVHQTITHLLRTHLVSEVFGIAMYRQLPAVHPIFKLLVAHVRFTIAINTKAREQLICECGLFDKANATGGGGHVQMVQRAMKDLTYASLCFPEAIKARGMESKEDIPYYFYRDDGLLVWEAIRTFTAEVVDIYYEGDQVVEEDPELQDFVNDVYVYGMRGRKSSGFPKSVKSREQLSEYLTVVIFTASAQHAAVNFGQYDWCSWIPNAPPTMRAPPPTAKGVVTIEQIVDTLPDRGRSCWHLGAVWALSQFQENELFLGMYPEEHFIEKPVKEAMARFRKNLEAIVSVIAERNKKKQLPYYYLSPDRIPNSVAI
The experiment is described as follows: Inhibition of 5LOX in human PBMC by EIA assay.

The target in experiment [3] is T3, Polyunsaturated fatty acid lipoxygenase ALOX15 (Oryctolagus cuniculus, UniProt P12530).
T3 sequence (P12530 whole entry): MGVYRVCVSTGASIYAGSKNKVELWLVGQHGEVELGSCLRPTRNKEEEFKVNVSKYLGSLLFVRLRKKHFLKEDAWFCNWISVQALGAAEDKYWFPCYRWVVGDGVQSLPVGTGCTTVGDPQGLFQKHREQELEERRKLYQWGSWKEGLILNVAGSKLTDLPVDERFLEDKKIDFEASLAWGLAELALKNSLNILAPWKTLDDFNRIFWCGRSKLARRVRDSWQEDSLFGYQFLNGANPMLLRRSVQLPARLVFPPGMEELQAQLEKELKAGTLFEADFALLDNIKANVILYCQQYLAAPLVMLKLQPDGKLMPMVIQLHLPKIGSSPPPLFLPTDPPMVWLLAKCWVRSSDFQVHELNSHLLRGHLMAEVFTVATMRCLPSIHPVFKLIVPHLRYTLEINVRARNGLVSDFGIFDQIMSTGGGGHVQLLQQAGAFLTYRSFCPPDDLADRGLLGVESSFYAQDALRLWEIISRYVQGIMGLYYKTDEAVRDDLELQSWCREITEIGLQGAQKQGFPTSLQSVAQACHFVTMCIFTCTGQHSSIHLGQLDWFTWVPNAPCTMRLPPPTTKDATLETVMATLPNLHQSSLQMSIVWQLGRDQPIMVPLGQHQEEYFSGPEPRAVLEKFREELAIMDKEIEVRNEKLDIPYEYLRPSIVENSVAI
The experiment is described as follows: Inhibition of 15LOX in rabbit reticulocytes by spectrophotometric assay.

pIC50: −log10 of the molar value.

On to `O=c1c(O)c(-c2ccc(O)cc2)oc2cc(O)cc(O)c12` [KAEMPFEROL], for which the pIC50 in experiment [1] is less than 4.00.
On to `COc1cc([C@@H]2OC[C@H]3[C@@H]2CO[C@H]3c2ccc(O)c(OC)c2)ccc1O` [(-)-PINORESINOL], for which the pIC50 in experiment [2] was 4.86.
Regarding `COc1cc2ccc(=O)oc2cc1O` [SCOPOLETIN], the pIC50 in experiment [1] and in experiment [2] was less than 4.00 throughout.
Consider `O=C1O[C@H](c2ccc(O)c(O)c2)[C@H]2CO[C@H](c3ccc(O)c(O)c3)[C@@H]12`, for which the pIC50 in experiment [1] is 4.04; in experiment [2] it was 5.25; in experiment [3], 6.28.
On the same counts, the results for `OC[C@@H]1[C@@H]([C@H](O)c2ccc(O)c(O)c2)CO[C@@H]1c1ccc(O)c(O)c1` are 4.13, 5.04 and 6.12.
Regarding `COc1cc2oc(=O)ccc2cc1O` [ISOSCOPOLETIN], the negative logarithm of the IC50 (pIC50) in experiment [1] and in experiment [2] was less than 4.00 in each case.
Take `Oc1ccc([C@@H]2OC[C@@H]3[C@H]2CO[C@H]3c2ccc(O)c(O)c2)cc1O`: the pIC50 in experiment [1] is less than 4.00; in experiment [2] it was 5.23; in experiment [3] it was 6.28.

The term pIC50 denotes −log10 of the IC50, conventionally taken in molar units.

Source of the values: ChEMBL document CHEMBL1147123, “Lipoxygenase inhibitory constituents of the fruits of noni (Morinda citrifolia) collected in Tahiti” (J Nat Prod, 2007).
